From ChEMBL document CHEMBL3885861, “Open TG-GATES”

Organism: Rattus norvegicus
Experiment: Open TG-GATES - Regimen: Single
Type: toxicity, organism-based, Sprague-Dawley
Set-up: regimen Single, gender Male, age 6 weeks
Conditions: in vivo, po, 100 mg/kg, route gavage, dose level Middle; for APTT / Bas / Eos / Fbg / Hb / Ht / Lym / MCH / MCHC / MCV / Mono / Neu / PT / Plat / RBC / Ret / WBC: tissue Blood; for KIDNEY_L / KIDNEY_R / KIDNEY_TOTAL: tissue Kidney; for LIVER: tissue Liver; for A/G / ALP / ALT / AST / BUN / CRE / Ca / Cl / DBIL / GLC / IP / K / LDH / Na / PL / RALB / TBIL / TC / TG / TP / gamma-GTP: tissue Plasma

`CCc1oc2ccccc2c1C(=O)c1cc(I)c(O)c(I)c1` [BENZIODARONE] gave a TERMINAL_BW (3 h) of 215.5 g, an APTT (3 h) of 16.9 s and a Bas (3 h) of 0%. For the same molecule, the Eos (3 h) was 0.6%, the Fbg (3 h) was 189.8 mg/dL and the Hb (3 h) was 13.1 g/dL. For the same molecule, the Ht (3 h) was 39.1%, the Lym (3 h) was 75.8% and the MCH (3 h) was 21.8 pg. The MCHC (3 h) was 33.6%, the MCV (3 h) was 64.9 fL and the Mono (3 h) was 8.8%. It also gave a Neu (3 h) of 15%, a PT (3 h) of 11.9 s and a Plat (3 h) of 118.7 x10_4/uL. For the same molecule, the RBC (3 h) was 603 x10_4/ul, the Ret (3 h) was 9.2% and the WBC (3 h) was 94.2 x10_2/uL. For the same molecule, the KIDNEY_L (3 h) was 1 g, the KIDNEY_R (3 h) was 1 g and the KIDNEY_TOTAL (3 h) was 2 g. The LIVER (3 h) was 10.2 g, the A/G (3 h) was 2.1 and the ALP (3 h) was 966.8 IU/L. For the same molecule, the ALT (3 h) was 36.6 IU/L, the AST (3 h) was 69 IU/L and the BUN (3 h) was 12.6 mg/dL. For the same molecule, the CRE (3 h) was 0.5 mg/dL, the Ca (3 h) was 10.5 mg/dL and the Cl (3 h) was 102.4 meq/L. It also gave a DBIL (3 h) of 0.02 mg/dL, a GLC (3 h) of 201.2 mg/dL and an IP (3 h) of 9.3 mg/dL. For the same molecule, the K (3 h) was 4.4 meq/L, the LDH (3 h) was 110 IU/L and the Na (3 h) was 140.4 meq/L. The PL (3 h) was 128.6 mg/dL, the RALB (3 h) was 3.5 g/dL and the TBIL (3 h) was 0.5 mg/dL. It also gave a TC (3 h) of 73.8 mg/dL, a TG (3 h) of 52.4 mg/dL and a TP (3 h) of 5.2 g/dL. The gamma-GTP (3 h) was 1.8 IU/L, the TERMINAL_BW (6 h) was 210.6 g and the APTT (6 h) was 16.8 s. For the same molecule, the Bas (6 h) was 0%, the Eos (6 h) was 1% and the Fbg (6 h) was 217.8 mg/dL. For the same molecule, the Hb (6 h) was 13.6 g/dL, the Ht (6 h) was 40.7% and the Lym (6 h) was 73.2%. It also gave an MCH (6 h) of 21.7 pg, an MCHC (6 h) of 33.3% and an MCV (6 h) of 65.1 fL. For the same molecule, the Mono (6 h) was 9.2%, the Neu (6 h) was 16.4% and the PT (6 h) was 11.8 s. The Plat (6 h) was 109.1 x10_4/uL, the RBC (6 h) was 625.8 x10_4/ul and the Ret (6 h) was 10.1%. For the same molecule, the WBC (6 h) was 113.1 x10_2/uL, the KIDNEY_L (6 h) was 0.9 g and the KIDNEY_R (6 h) was 0.9 g. The KIDNEY_TOTAL (6 h) was 1.9 g, the LIVER (6 h) was 9.7 g and the A/G (6 h) was 2. For the same molecule, the ALP (6 h) was 826.8 IU/L, the ALT (6 h) was 32.6 IU/L and the AST (6 h) was 61.2 IU/L. It also gave a BUN (6 h) of 12.4 mg/dL, a CRE (6 h) of 0.5 mg/dL and a Ca (6 h) of 10.7 mg/dL. It also gave a Cl (6 h) of 103.2 meq/L, a DBIL (6 h) of 0.02 mg/dL and a GLC (6 h) of 182.4 mg/dL. The IP (6 h) was 9.9 mg/dL, the K (6 h) was 4.6 meq/L and the LDH (6 h) was 108.4 IU/L. The Na (6 h) was 140.4 meq/L, the PL (6 h) was 133 mg/dL and the RALB (6 h) was 3.6 g/dL. For the same molecule, the TBIL (6 h) was 0.3 mg/dL, the TC (6 h) was 74.4 mg/dL and the TG (6 h) was 77.8 mg/dL. It also gave a TP (6 h) of 5.4 g/dL, a gamma-GTP (6 h) of 1.6 IU/L and a TERMINAL_BW (9 h) of 209.5 g. It also gave an APTT (9 h) of 16.8 s, a Bas (9 h) of 0% and an Eos (9 h) of 1%. The Fbg (9 h) was 202.2 mg/dL, the Hb (9 h) was 13.6 g/dL and the Ht (9 h) was 40.8%. It also gave a Lym (9 h) of 76.4%, an MCH (9 h) of 21.3 pg and an MCHC (9 h) of 33.3%. For the same molecule, the MCV (9 h) was 63.9 fL, the Mono (9 h) was 7.4% and the Neu (9 h) was 15.4%. The PT (9 h) was 12.4 s, the Plat (9 h) was 121.3 x10_4/uL and the RBC (9 h) was 638.4 x10_4/ul. It also gave a Ret (9 h) of 8.2%, a WBC (9 h) of 86.5 x10_2/uL and a KIDNEY_L (9 h) of 1 g. For the same molecule, the KIDNEY_R (9 h) was 0.9 g, the KIDNEY_TOTAL (9 h) was 1.9 g and the LIVER (9 h) was 8.9 g. For the same molecule, the A/G (9 h) was 2.3, the ALP (9 h) was 766.6 IU/L and the ALT (9 h) was 29.8 IU/L. It also gave an AST (9 h) of 63.4 IU/L, a BUN (9 h) of 13 mg/dL and a CRE (9 h) of 0.5 mg/dL. It also gave a Ca (9 h) of 10.3 mg/dL, a Cl (9 h) of 105.2 meq/L and a DBIL (9 h) of 0.07 mg/dL. For the same molecule, the GLC (9 h) was 194.8 mg/dL, the IP (9 h) was 10.9 mg/dL and the K (9 h) was 4.5 meq/L. The LDH (9 h) was 108.8 IU/L, the Na (9 h) was 142.4 meq/L and the PL (9 h) was 122.8 mg/dL. The RALB (9 h) was 3.7 g/dL, the TBIL (9 h) was 0.3 mg/dL and the TC (9 h) was 68.2 mg/dL. The TG (9 h) was 56.6 mg/dL, the TP (9 h) was 5.4 g/dL and the gamma-GTP (9 h) was 0.6 IU/L. For the same molecule, the TERMINAL_BW (24 h) was 228.7 g, the APTT (24 h) was 17.4 s and the Bas (24 h) was 0%. The Eos (24 h) was 1.2%, the Fbg (24 h) was 196.8 mg/dL and the Hb (24 h) was 13.2 g/dL. The Ht (24 h) was 39.3%, the Lym (24 h) was 73.8% and the MCH (24 h) was 22 pg. For the same molecule, the MCHC (24 h) was 33.7%, the MCV (24 h) was 65.4 fL and the Mono (24 h) was 9.6%. For the same molecule, the Neu (24 h) was 15.6%, the PT (24 h) was 12.1 s and the Plat (24 h) was 113.1 x10_4/uL. The RBC (24 h) was 601.2 x10_4/ul, the Ret (24 h) was 9% and the WBC (24 h) was 106.2 x10_2/uL. For the same molecule, the KIDNEY_L (24 h) was 1 g, the KIDNEY_R (24 h) was 1 g and the KIDNEY_TOTAL (24 h) was 2 g. For the same molecule, the LIVER (24 h) was 11.9 g, the A/G (24 h) was 2.1 and the ALP (24 h) was 1017.4 IU/L. For the same molecule, the ALT (24 h) was 36.8 IU/L, the AST (24 h) was 66 IU/L and the BUN (24 h) was 17.8 mg/dL. For the same molecule, the CRE (24 h) was 0.5 mg/dL, the Ca (24 h) was 10.6 mg/dL and the Cl (24 h) was 104.8 meq/L. For the same molecule, the DBIL (24 h) was 0.006 mg/dL, the GLC (24 h) was 196 mg/dL and the IP (24 h) was 7.6 mg/dL. The K (24 h) was 4.6 meq/L, the LDH (24 h) was 87.6 IU/L and the Na (24 h) was 140.8 meq/L. The PL (24 h) was 129 mg/dL, the RALB (24 h) was 3.7 g/dL and the TBIL (24 h) was 0.4 mg/dL. It also gave a TC (24 h) of 65.8 mg/dL, a TG (24 h) of 84 mg/dL and a TP (24 h) of 5.5 g/dL. It also gave a gamma-GTP (24 h) of 1 IU/L.
